Each compound was assayed on M. smegmatis MC^2 155 strain (assay: Antitubercular activity: growth inhibition of M. smegmatis in 96 well microtiter plate (absorbance at 600 nm)). Settings: Mycolicibacterium smegmatis, MC^2155, final concentration of compound 30 μM, 32 hrs, determined against DMSO, triplicate, read-out: Percentage inhibition.
Assay type: cell-based, Mycobacterium smegmatis
Protocol: The compounds were tested for their Anti Mycobacterial ability on M. smegmatis MC^2 155 strain. The series of compounds were obtained in 10 mM stock concentrations. Further, each compound was diluted with the required 100% (v/v) DMSO to achieve a working concentration of 1.5 mM. The inoculum for the assay was prepared by reviving a glycerol stock in Middlebrook 7H9 broth supplemented with 0.1% Tween 80 and 0.5% Glycerol. At the time of inoculation, 10% ADS was added to the media and the culture was incubated in a shaker incubator at 37° C. and 200 rpm. The O.D. of the inoculum reached to 0.8-1 approximately, a secondary inoculum was inoculated and subsequently incubated. This was incubated overnight till the O.D. of the inoculum reached 0.4 approx., following which the inoculum was diluted 1:1000 times. In a 96 well microtiter plate, a 2 μL aliquot of the 1.5 mM dilution of compound was added to each well in triplicate, to which 98 μL of inoculum dilution was added, making the final concentration of compound 30 μM. To each plate a set of controls was added to better ascertain the activity of the compounds. These included DMSO, which was taken as a growth control, and media control (Blank) and Rifampicin and Isoniazid, which were taken as positive controls of inhibition of Mycobacterium smegmatis. After the completion of the period of 32 hrs, the absorbance of the inoculum in wells was measured at 600 nm using a Multi Mode Reader. Absorbance is considered directly proportional to the increase in growth of bacteria, thus it gives a measure of the growth of bacteria in each well. Percentage inhibition was determined against DMSO.
For `CN1C(=O)C(OC(=O)c2cc3ccccc3o2)(C(=O)NC(C)(C)C)c2ccccc21` (stereo not shown), the inhibition at 30 µM was 26.4%. For `CN1C(=O)C(OC(=O)c2cc3ccccc3[nH]2)(C(=O)NC(C)(C)C)c2ccccc21` (stereo not shown), the inhibition at 30 µM was 9%. Work on `CN1C(=O)C(OC(=O)c2ccccn2)(C(=O)NC(C)(C)C)c2ccccc21` (stereo not shown) yielded an inhibition at 30 µM of 5.24%. With `CCOC(=O)CNC(=O)C1(OC(=O)c2ccccc2)C(=O)N(C)c2ccccc21` (stereo not shown) the inhibition at 30 µM was 14.7%. `CN1C(=O)C(OC(=O)/C=C/c2ccccc2)(C(=O)NC(C)(C)C)c2ccccc21` (stereo not shown) was tested, and the inhibition at 30 µM was 7.04%. Compound `COc1ccc(CC(=O)OC2(C(=O)NC(C)(C)C)C(=O)N(C)c3ccccc32)cc1` (stereo not shown) has an inhibition at 30 µM of 44.2%. In the case of `CC(C)NC(=O)C1(OC(=O)c2ccccc2)C(=O)N(C)c2ccccc21` (stereo not shown), the inhibition at 30 µM is reported as -5.24%. Compound `CN1C(=O)C(OC(=O)c2ccccc2)(C(=O)NC2CCCCC2)c2ccccc21` (stereo not shown) has an inhibition at 30 µM of -8.02%. Work on `CN1C(=O)C(OC(=O)c2ccccc2)(C(=O)NC(C)(C)C)c2ccccc21` (stereo not shown) [Compound 4a, 3-(tert-Butylcarbamoyl)-1-methyl-2-oxoindolin-3-yl benzoate] yielded an inhibition at 30 µM of 18.6%. Work on `CN1C(=O)C(OC(=O)c2ccccc2F)(C(=O)NC(C)(C)C)c2ccccc21` (stereo not shown) [Compound 4b, 3-(tert-Butylcarbamoyl)-1-methyl-2-oxoindolin-3-yl 2-fluoro benzoate] yielded an inhibition at 30 µM of 24.6%. With `CN1C(=O)C(OC(=O)c2ccccc2Cl)(C(=O)NC(C)(C)C)c2ccccc21` (stereo not shown) [Compound 4c, 3-(tert-Butylcarbamoyl)-1-methyl-2-oxoindolin-3-yl 2-chloro benzoate] the inhibition at 30 µM was 42.7%. `CN1C(=O)C(OC(=O)c2ccccc2Br)(C(=O)NC(C)(C)C)c2ccccc21` (stereo not shown) [Compound 4d, 3-(tert-butylcarbamoyl)-1-methyl-2-oxoindolin-3-yl 2-bromo benzoate] showed an inhibition at 30 µM of 17.3%. Compound `CN1C(=O)C(OC(=O)c2cccc([N+](=O)[O-])c2)(C(=O)NC(C)(C)C)c2ccccc21` (stereo not shown) [Compound 4e, 3-(tert-Butylcarbamoyl)-1-methyl-2-oxoindolin-3-yl 3-nitro benzoate] has an inhibition at 30 µM of -5.24%. `CN1C(=O)C(OC(=O)c2ccc([N+](=O)[O-])cc2)(C(=O)NC(C)(C)C)c2ccccc21` (stereo not shown) [Compound 4f, 3-(tert-Butylcarbamoyl)-1-methyl-2-oxoindolin-3-yl 4-nitro benzoate] was tested, and the inhibition at 30 µM was 21.5%. With `COc1ccc(C(=O)OC2(C(=O)NC(C)(C)C)C(=O)N(C)c3ccccc32)cc1` (stereo not shown) [Compound 4g, 3-(tert-Butylcarbamoyl)-1-methyl-2-oxoindolin-3-yl 4-methoxy benzoate] the inhibition at 30 µM was 43.5%. `CN1C(=O)C(OC(=O)c2ccco2)(C(=O)NC(C)(C)C)c2ccccc21` (stereo not shown) [Compound 4h, 3-(tert-Butylcarbamoyl)-1-methyl-2-oxoindolin-3-yl furan-2-carboxylate] gave an inhibition at 30 µM of 24.1%. `CN1C(=O)C(OC(=O)c2cccs2)(C(=O)NC(C)(C)C)c2ccccc21` (stereo not shown) [Compound 4i, 3-(tert-Butylcarbamoyl)-1-methyl-2-oxoindolin-3-yl thiophene-2-carboxylate] gave an inhibition at 30 µM of 30.8%. Work on `CC(=O)OC1(C(=O)NC(C)(C)C)C(=O)N(C)c2ccccc21` (stereo not shown) [Compound 4n, 3-(tert-Butylcarbamoyl)-1-methyl-2-oxoindolin-3-yl acetate] yielded an inhibition at 30 µM of 19.6%. In the case of `CCC(=O)OC1(C(=O)NC(C)(C)C)C(=O)N(C)c2ccccc21` (stereo not shown) [Compound 4o, 3-(tert-Butylcarbamoyl)-1-methyl-2-oxoindolin-3-yl propionate], the inhibition at 30 µM is reported as -1.64%. Work on `CC(C)(C)NC(=O)C1(OC(=O)c2ccccc2)C(=O)N(Cc2ccccc2)c2ccccc21` (stereo not shown) [Compound 4q, 1-Benzyl-3-(tert-Butylcarbamoyl)-2-oxoindolin-3-yl benzoate] yielded an inhibition at 30 µM of 42.9%. Work on `C=CCN1C(=O)C(OC(=O)c2ccccc2)(C(=O)NC(C)(C)C)c2ccccc21` (stereo not shown) [Compound 4r, 1-Allyl-3-(tert-Butylcarbamoyl)-2-oxoindolin-3-yl benzoate] yielded an inhibition at 30 µM of 35.4%. With `CC(C)(C)NC(=O)C1(OC(=O)c2ccccc2)C(=O)Nc2ccccc21` (stereo not shown) [Compound 4s, 3-(tert-Butylcarbamoyl)-2-oxoindolin-3-yl benzoate] the inhibition at 30 µM was 19.1%. `CN1C(=O)C(OC(=O)c2ccccc2)(C(=O)NC(C)(C)C)c2cc(F)ccc21` (stereo not shown) [Compound 4u, 3-(tert-Butylcarbamoyl)-5-fluoro-1-methyl-2-oxoindolin-3-yl benzoate] was tested, and the inhibition at 30 µM was 5.24%. `CN1C(=O)C(OC(=O)c2ccccc2)(C(=O)NC(C)(C)C)c2cc(Cl)ccc21` (stereo not shown) [Compound 4v, 3-(tert-Butylcarbamoyl)-5-chloro-1-methyl-2-oxoindolin-3-yl benzoate] gave an inhibition at 30 µM of 9.49%. `CN1C(=O)C(OC(=O)c2ccccc2)(C(=O)NC(C)(C)C)c2cc(Br)ccc21` (stereo not shown) [Compound 4w, 5-Bromo-3-(tert-Butylcarbamoyl)-1-methyl-2-oxoindolin-3-yl benzoate] showed an inhibition at 30 µM of 23.4%.

Reference: patent US9783496B2, “Oxindole compounds, solvent-free synthesis and use thereof” (Council of Scientific & Industrial Research, priority 2013, dated 2017)
